Results reported in ChEMBL document CHEMBL1201862, “PubChem BioAssay data set” (2004).
The source made the active and inactive calls.

Tests used:
Cytochrome P450 2C9 = Cytochrome P450 2C9 (Homo sapiens, UniProt P11712)
Cytochrome P450 2D6 = Cytochrome P450 2D6 (Homo sapiens, UniProt P10635);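 note: CYP2D6 member of a cytochrome P450 panel assay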
Cytochrome P450 3A4 = Cytochrome P450 3A4 (Homo sapiens, UniProt P08684);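 note: CYP3A4 tested as one member of a cytochrome P450 panel screen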
[1] = Luminescence Cell-Based Dose Retest to Confirm Inhibitors of Cancer Stem Cells. [Related pubchem assays (depositor defined):AID2717, AID2721]; format: functional; conditions: Homo sapiens
[2] = biological target: Intestinal-type alkaline phosphatase (Mus musculus, UniProt P24822); assay: PubChem AID 488875; format: functional
[3] = biological target: T1, Intestinal-type alkaline phosphatase (Homo sapiens, UniProt P09923); assay: human intestinal alkaline phosphatase activators, dose response, biochemical, luminescence, uHTS hits (AID 463120); format: functional
[4] = biological target: T1, Intestinal-type alkaline phosphatase; assay: activation of human intestinal alkaline phosphatase – biochemical, luminescent, uHTS hits, set 2, dose response (AID 488817); format: functional;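 note: potency of activators that raise enzyme activity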
[5] = biological target: T2, Alkaline phosphatase, tissue-nonspecific isozyme (Homo sapiens, UniProt P05186); assay: activation of tissue-nonspecific alkaline phosphatase – biochemical, TNAP isozyme, human IAP uHTS hits, selectivity assay for human IAP activator project, dose response (AID 488886); format: functional;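 note: potency of compounds raising TNAP activity as a selectivity check on IAP activators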
T2 sequence (P05186 whole entry): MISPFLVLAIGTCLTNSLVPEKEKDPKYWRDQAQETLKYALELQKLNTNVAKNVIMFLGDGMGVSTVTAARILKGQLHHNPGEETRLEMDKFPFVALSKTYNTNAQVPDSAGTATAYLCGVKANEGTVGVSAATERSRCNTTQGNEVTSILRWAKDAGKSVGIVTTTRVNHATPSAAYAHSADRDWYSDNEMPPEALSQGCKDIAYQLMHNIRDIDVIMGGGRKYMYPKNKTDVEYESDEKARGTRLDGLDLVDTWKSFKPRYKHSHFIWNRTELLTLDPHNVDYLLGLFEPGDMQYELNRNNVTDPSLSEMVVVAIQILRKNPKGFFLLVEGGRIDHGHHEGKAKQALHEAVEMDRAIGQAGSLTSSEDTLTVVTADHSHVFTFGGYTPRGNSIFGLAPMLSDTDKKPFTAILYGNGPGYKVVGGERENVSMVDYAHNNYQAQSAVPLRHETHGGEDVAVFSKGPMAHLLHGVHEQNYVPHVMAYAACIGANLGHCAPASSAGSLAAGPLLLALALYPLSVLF

[6] = biological target: T3, Replicative DNA helicase DnaB (Mycobacterium tuberculosis, UniProt P9WMR3); assay: DnaB intein splicing inhibitors, dose response, biochemical, cell-free fluorescence (AID 449749); format: functional
T3 sequence (P9WMR3 whole entry): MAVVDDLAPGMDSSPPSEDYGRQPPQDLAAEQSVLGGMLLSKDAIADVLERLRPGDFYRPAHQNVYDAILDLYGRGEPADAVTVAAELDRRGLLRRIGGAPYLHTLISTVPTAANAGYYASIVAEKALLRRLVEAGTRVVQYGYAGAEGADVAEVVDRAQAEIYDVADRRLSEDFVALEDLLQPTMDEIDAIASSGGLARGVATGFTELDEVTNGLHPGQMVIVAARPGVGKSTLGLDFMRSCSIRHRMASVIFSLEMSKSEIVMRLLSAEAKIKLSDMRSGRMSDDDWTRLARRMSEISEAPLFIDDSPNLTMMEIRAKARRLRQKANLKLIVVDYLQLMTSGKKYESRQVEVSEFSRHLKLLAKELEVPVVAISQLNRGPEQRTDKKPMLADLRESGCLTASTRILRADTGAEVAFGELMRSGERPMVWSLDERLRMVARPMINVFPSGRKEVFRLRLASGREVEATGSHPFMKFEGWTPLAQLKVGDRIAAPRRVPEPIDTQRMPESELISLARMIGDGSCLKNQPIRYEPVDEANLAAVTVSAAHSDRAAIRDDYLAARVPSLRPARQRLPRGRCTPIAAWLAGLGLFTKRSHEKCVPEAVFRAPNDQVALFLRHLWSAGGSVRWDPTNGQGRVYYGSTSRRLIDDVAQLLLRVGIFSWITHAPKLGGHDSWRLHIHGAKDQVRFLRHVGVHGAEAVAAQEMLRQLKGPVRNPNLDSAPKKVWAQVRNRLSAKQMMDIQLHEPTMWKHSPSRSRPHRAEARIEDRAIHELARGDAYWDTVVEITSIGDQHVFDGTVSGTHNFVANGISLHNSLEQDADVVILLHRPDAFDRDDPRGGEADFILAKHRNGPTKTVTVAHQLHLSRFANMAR

[7] = biological target: T4, High affinity choline transporter 1 (Homo sapiens, UniProt Q9GZV3); assay: human choline transporter blockers, potency – cell-based, 5-point CRC, membrane potential dye, dose response (AID 504840); format: functional
T4 sequence (Q9GZV3 whole entry): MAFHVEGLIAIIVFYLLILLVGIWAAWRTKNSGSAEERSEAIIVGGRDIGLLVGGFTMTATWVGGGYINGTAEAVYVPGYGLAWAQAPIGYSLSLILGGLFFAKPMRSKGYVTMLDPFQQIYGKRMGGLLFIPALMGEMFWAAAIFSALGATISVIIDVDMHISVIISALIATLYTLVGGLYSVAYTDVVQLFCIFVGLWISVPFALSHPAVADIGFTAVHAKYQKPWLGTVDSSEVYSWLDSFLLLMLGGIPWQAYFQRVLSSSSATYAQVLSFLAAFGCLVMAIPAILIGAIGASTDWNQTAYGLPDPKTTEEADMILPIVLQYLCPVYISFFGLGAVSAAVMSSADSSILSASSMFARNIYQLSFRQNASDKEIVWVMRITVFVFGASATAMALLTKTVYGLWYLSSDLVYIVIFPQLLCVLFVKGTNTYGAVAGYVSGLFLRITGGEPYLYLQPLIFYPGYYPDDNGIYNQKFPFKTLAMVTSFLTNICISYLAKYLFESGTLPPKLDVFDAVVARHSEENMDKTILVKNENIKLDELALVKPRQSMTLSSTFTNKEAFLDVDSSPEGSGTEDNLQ

Protein RecA = biological target: T5, Protein RecA (Mycobacterium tuberculosis, UniProt P9WHJ3); assay: Fluorescence Cell-Free Homogeneous Dose Retest to Identify Inhibitors of RecA-Intein Splicing Activity. [Related pubchem assays (depositor defined):AID2097, AID2223, AID489010, AID492950]; format: functional
T5 sequence (P9WHJ3 whole entry): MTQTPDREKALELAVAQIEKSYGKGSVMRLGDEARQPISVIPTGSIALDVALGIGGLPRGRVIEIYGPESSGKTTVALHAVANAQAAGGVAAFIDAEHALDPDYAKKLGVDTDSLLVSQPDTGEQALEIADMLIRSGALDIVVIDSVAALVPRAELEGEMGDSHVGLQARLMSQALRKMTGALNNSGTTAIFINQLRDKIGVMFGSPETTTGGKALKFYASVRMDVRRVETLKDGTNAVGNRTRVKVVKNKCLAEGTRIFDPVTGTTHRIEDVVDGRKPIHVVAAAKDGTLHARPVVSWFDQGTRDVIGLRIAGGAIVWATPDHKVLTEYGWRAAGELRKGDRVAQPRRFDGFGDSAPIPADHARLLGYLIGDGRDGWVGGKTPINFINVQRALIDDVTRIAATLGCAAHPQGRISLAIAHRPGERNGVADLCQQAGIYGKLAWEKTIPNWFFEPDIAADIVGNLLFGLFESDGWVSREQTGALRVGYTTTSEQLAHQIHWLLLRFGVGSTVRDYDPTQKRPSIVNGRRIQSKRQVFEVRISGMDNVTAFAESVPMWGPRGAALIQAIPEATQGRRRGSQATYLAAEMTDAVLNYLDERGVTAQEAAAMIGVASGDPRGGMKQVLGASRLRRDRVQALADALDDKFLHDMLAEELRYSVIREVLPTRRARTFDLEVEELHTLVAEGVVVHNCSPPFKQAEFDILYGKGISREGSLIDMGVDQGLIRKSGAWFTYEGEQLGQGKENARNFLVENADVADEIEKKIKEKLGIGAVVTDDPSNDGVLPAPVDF

Trypsin = Trypsin (Sus scrofa, UniProt P00761); assay: trypsin protease activity blockade – biochemical, quenched peptide fluorescence, cherry-pick, selectivity assay for Rce1 protease inhibitor project, dose response (AID 488789)
CAAX prenyl protease 1 = CAAX prenyl protease 1 (Saccharomyces cerevisiae S288c, UniProt P47154); assay: yeast CAAX protease Ste24 inhibition – biochemical, S. cerevisiae, plate reader, cherry-pick, dose response (AID 488815)
[8] = biological target: T6, Histone-lysine N-methyltransferase NSD2 (Homo sapiens, UniProt O96028); format: biochemical
T6 sequence (O96028 whole entry): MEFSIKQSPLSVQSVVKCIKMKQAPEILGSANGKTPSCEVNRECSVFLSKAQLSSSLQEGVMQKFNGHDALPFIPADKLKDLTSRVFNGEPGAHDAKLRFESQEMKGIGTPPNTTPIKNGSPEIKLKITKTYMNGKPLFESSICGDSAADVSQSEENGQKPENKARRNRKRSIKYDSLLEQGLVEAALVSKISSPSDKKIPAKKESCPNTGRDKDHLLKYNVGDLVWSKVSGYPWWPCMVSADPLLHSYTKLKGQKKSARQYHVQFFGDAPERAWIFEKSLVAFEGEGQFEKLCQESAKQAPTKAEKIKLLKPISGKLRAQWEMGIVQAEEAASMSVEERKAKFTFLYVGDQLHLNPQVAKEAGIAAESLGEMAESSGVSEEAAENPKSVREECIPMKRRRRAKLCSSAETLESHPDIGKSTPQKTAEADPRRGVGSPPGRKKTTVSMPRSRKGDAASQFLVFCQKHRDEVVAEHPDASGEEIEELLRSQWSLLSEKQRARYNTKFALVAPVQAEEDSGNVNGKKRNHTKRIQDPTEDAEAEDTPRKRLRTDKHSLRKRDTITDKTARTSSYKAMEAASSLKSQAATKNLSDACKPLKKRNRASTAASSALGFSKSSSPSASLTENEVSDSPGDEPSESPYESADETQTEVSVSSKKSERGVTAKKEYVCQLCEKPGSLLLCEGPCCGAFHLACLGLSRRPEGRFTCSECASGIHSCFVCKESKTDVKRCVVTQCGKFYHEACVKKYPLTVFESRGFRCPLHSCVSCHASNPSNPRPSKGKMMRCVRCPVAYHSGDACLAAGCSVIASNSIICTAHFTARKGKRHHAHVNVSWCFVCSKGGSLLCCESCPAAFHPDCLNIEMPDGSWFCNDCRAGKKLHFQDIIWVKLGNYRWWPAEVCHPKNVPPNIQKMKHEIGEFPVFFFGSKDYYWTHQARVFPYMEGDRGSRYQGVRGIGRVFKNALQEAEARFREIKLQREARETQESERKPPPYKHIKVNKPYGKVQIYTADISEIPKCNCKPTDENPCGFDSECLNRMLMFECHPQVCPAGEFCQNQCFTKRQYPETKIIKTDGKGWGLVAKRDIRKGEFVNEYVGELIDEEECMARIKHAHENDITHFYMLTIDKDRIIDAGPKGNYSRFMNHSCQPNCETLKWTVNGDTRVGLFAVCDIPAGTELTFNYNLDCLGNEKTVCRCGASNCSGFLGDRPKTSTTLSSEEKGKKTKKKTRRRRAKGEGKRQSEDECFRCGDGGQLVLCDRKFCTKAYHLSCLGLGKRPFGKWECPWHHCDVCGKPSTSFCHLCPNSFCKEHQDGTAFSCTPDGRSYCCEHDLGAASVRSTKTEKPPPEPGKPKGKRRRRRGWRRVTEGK

[9] = biological target: T7, Mannose-6-phosphate isomerase (Homo sapiens, UniProt P34949); assay: phosphomannose isomerase inhibition – biochemical, fluorescence intensity, confirmation (AID 1535)
T7 sequence (P34949 whole entry): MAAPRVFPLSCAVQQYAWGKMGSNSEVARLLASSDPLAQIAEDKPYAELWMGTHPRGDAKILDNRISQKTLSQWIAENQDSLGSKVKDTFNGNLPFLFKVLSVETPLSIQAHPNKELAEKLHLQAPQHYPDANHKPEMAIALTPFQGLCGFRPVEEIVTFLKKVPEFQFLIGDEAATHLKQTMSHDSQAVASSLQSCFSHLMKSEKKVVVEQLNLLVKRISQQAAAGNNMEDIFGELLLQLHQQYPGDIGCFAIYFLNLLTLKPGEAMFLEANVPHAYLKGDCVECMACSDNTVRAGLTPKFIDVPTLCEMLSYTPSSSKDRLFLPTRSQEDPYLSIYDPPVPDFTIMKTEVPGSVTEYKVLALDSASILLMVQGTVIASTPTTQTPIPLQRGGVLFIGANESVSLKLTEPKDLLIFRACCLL

Phosphomannomutase 2 = Phosphomannomutase 2 (Homo sapiens, UniProt O15305); assay: Counter screen SAR assay for PMM2 inhibitors via a fluorescence intensity assay. [Related pubchem assays (depositor defined):AID1545, AID1574]
[10] = biological target: Phosphoethanolamine/phosphocholine phosphatase (Homo sapiens, UniProt Q8TCT1); assay: SAR assay for compounds that inhibit PHOSPHO1. [Related pubchem assays (depositor defined):AID1545, AID1565, AID1574]
Phosphoethanolamine/phosphocholine phosphatase, sequence (Q8TCT1 whole entry): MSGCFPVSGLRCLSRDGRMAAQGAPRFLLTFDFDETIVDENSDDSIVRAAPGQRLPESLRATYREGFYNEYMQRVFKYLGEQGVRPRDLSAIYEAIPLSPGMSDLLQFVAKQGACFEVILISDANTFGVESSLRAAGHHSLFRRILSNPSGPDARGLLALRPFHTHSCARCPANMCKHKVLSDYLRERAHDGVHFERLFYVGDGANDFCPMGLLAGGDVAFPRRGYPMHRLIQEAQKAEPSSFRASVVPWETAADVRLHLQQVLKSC

T1 sequence (P09923 whole entry): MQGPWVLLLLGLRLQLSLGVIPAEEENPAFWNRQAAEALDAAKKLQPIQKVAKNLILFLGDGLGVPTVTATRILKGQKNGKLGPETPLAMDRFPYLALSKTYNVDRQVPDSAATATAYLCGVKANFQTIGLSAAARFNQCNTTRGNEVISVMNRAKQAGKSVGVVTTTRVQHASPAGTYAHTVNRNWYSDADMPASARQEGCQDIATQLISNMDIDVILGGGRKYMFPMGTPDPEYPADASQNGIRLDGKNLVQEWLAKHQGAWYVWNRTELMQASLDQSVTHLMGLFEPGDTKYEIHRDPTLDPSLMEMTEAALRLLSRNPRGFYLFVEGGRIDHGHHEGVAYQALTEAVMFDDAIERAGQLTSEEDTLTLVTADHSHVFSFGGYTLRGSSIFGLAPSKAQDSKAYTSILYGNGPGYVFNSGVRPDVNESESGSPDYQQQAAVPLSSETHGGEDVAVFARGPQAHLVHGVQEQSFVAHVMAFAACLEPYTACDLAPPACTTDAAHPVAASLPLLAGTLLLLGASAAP
Trypsin, sequence (P00761 whole entry): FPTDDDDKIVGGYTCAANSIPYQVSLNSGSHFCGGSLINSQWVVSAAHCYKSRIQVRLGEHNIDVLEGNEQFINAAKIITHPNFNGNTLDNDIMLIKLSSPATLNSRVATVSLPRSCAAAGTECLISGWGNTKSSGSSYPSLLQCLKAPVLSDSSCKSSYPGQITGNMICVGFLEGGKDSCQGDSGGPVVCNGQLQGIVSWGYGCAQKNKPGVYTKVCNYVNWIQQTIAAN
Phosphomannomutase 2, sequence (O15305 whole entry): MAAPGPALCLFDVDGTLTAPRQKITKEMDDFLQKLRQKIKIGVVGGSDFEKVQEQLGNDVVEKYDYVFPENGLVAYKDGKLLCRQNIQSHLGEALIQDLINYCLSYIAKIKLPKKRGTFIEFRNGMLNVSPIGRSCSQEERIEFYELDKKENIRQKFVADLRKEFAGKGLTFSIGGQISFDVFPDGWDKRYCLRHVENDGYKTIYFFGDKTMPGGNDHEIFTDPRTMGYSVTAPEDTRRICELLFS
Cytochrome P450 2D6, sequence (P10635 whole entry): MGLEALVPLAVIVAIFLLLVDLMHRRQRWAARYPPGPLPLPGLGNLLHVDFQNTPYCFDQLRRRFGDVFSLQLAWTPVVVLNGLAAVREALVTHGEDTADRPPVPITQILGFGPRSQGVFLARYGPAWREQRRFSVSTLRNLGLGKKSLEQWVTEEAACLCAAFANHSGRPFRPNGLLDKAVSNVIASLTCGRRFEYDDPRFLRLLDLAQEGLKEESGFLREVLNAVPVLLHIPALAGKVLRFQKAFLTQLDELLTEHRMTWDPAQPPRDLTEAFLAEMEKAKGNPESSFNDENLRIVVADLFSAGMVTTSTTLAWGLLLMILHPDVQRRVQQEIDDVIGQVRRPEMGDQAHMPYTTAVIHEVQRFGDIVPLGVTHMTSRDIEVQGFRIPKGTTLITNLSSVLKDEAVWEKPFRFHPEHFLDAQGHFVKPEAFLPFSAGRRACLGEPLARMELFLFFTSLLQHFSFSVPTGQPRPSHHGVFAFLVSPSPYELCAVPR
Cytochrome P450 2C9, sequence (P11712 whole entry): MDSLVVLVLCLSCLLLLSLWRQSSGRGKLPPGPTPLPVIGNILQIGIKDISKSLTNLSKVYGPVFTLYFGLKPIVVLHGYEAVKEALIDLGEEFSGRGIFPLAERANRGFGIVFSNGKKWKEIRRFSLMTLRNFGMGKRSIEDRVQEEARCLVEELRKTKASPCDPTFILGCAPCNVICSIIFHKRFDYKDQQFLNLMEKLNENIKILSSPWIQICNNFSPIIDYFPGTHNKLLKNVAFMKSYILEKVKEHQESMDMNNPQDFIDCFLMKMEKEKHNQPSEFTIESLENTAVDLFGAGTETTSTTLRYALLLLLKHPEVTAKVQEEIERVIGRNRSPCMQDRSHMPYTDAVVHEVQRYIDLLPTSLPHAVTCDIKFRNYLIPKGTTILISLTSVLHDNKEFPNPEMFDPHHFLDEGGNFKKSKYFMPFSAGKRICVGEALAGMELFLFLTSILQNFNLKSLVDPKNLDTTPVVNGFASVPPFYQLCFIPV
CAAX prenyl protease 1, sequence (P47154 whole entry): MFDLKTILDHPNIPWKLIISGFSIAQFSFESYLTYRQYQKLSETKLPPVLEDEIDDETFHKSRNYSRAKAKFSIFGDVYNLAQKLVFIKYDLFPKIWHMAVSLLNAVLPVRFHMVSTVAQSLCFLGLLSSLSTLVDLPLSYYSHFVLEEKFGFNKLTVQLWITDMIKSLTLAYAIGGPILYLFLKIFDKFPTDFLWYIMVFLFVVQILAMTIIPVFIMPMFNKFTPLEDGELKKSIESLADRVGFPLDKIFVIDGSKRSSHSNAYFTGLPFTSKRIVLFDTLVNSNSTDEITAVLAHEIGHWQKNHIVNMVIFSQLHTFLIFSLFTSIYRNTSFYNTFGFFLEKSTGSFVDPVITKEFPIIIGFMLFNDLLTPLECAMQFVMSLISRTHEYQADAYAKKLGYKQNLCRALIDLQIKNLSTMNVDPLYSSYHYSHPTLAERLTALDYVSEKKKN
Cytochrome P450 3A4, sequence (P08684 whole entry): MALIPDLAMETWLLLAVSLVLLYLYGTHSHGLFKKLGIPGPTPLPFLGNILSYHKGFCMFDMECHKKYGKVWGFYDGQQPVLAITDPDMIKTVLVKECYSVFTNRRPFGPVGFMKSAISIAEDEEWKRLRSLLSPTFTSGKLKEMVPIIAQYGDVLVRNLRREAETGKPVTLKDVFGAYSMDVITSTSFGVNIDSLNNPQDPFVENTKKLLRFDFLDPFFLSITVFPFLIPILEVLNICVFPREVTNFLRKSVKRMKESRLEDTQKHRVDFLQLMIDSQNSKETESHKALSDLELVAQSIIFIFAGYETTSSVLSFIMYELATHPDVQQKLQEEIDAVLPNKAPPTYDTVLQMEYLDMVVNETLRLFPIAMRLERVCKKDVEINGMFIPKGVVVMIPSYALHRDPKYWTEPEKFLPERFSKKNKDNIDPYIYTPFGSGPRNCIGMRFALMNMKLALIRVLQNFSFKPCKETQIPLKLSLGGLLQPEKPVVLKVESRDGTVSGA
Intestinal-type alkaline phosphatase (Mus musculus, UniProt P24822), sequence (P24822 whole entry): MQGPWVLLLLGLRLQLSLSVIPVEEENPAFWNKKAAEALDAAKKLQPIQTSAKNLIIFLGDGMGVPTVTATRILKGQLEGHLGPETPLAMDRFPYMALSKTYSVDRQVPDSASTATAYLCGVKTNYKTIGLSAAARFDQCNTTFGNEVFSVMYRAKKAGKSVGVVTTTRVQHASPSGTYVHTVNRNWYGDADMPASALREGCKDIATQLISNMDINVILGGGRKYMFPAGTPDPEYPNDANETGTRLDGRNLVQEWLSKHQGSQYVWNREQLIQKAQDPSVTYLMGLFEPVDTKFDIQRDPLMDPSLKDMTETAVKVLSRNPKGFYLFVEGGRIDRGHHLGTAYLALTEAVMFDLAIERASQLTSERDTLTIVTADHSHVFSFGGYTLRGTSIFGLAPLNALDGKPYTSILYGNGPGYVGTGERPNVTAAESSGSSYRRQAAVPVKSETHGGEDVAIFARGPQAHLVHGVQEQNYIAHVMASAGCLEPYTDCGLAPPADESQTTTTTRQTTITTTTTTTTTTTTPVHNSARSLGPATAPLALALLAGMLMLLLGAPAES

CCSc1nc(O)c2c3c(sc2n1)COC(C)(CC)C3 (configuration not stated)
AC50 (Cytochrome P450 2C9): 2.82 µM (inconclusive) | AC50 (Cytochrome P450 2D6): inconclusive | AC50 (Cytochrome P450 3A4): inconclusive

Cc1cc(C)cc(CC(Cc2nc3ccccc3[nH]2)c2nc3ccccc3[nH]2)c1 (configuration not stated)
AC50 [1]: 6.69 µM (active) | EC50 [2]: 26.6 µM (active) | EC50 [3]: 65.7 µM (active) | EC50 [4]: 55.6 µM (active) | EC50 [5]: 69.7 µM (active) | AC50 [6]: 8.31 µM (active) | IC50 [7]: 15.8 µM (active) | EC50 (Protein RecA): 83 µM (active)

CCN(CC)CCCNc1cc(C)nc2cc(-c3cccs3)nn12
AC50 (Trypsin): 19.4 µM (active) | AC50 (CAAX prenyl protease 1): 6.24 µM (active) | AC50 [8]: > 20 µM (inactive)

O=c1c2c(OCC(F)(F)F)cc([N+](=O)[O-])cc2sn1-c1ccc(F)cc1
IC50 [9]: 26.1 µM (active) | IC50 (Phosphomannomutase 2): > 100 µM (inactive) | IC50 [10]: 0.577 µM (active)
